Measured values published in paper PMC6130628, “Some pharmacokinetic parameters of salvianolic acid A following single-dose oral administration to rats” (Pharmaceutical Biology, 2018).
“Also recorded” adds a separate entry of the source.

Assays:
[1] = set-up: method as in Pei et al. [2008]; conditions: oral administration at 100 mg/kg; ref Pei et al. [2008]; cited from earlier work
[2] = Tissue distribution of Sal A in rats; format: in vivo, Sprague-Dawley rats; conditions: single oral dose 5 mg/kg
Experimental: Twenty-four healthy, intact Sprague–Dawley rats (male/female, 1/1, 185–215 g, Certificate No. SCXK 2006-0009) were purchased from Vital River Laboratories (Beijing, China). The rats were maintained in air-conditioned animal quarters with alternating 12 h light/dark cycles at a room temperature of 22 ± 2 °C and a relative humidity of 50 ± 10%. The rodents were given a commercial rat chow and water ad libitum. The experiment started after acclimation to the facilities for 7 days. The animal protocols used in this study followed guidelines set forth by the Ethic Committee of Laboratory Animals of the Affiliated Hospital of Qingdao University (QYFYKYLL 2013-2-4-01).
Rats were fasted overnight (∼12 h) and had free access to water throughout the experimental period. In our study, rats were treated as followed: 18 rats were divided into 3 groups randomly (6 rats/group, male/female =1/1) and were all given a single oral dose of 5 mg/kg. The animals were sacrificed 10 min, 1 and 2 h postdosing and stomach, small intestine, heart, liver, spleen, lung, kidney and brain were harvested for drug analysis. The remaining six rats were given normal saline as control. Tissue samples were frozen and maintained at –80 °C immediately until analysis.
Tissues were homogenized in normal saline (2 mL/g, except 6 mL/g for stomach) using a FLUKO F6/10 for 1–2 min over an ice bath. The aliquots of 200 μL homogenized tissues were used for the LC–MS analysis. The remaining steps were the same as sample preparation in “Pharmacokinetic study in vivo”.

[3] = Excretion of Sal A from rats (feces, urine, bile; UPLC–MS/MS); format: in vivo, Sprague-Dawley rats; conditions: single oral dose 20 mg/kg
Experimental: Twelve healthy, intact Sprague-Dawley rats (male/female, 1/1, 185-215 g, Certificate No. SCXK 2006-0009) were purchased from Vital River Laboratories (Beijing, China). The rats were maintained in air-conditioned animal quarters with alternating 12 h light/dark cycles at a room temperature of 22 ± 2 °C and a relative humidity of 50 ± 10%. The rodents were given a commercial rat chow and water ad libitum. The experiment started after acclimation to the facilities for 7 days. The studies were conducted under protocols approved by the Ethics Committee of Laboratory Animals of the Affiliated Hospital of Qingdao University ([…] 2013-2-4-01). In the urine and feces excretion studies, rats were treated as follows. After acclimation to the facilities for 7 days in metabolism cages and being fasted overnight (∼12 h) with free access to water, six rats (male/female, 1/1) were given a single dose of Sal A at 20 mg/kg orally. Blank feces and urine were got prior to administration. […] These samples were immediately frozen and maintained at -80 °C until analysis. In the bile excretion study, rats were treated as follows. After acclimation to the facilities for 7 days and being fasted overnight (∼12 h) with free access to water, six rats (male/female, 1/1) received a bile duct intubation surgery. An oral dose of 20 mg/kg were given to the postoperative awake rats, and bile samples were collected prior and after the administration (from 0 to 2, 2 to 4, 4 to 6, 6 to 8, 8 to 12 and 12 to 24 h). The samples were immediately frozen and maintained at -80 °C immediately until analysis. After drying, feces were soaked in purified water containing VC 100 μg/mL (5 mL/g) overnight and treated with ultrasonic for 10 min. Homogenate was centrifuged at 13,400 rpm for 10 min. 200 μL of the supernatant was got for the UPLC-MS/MS analysis, along with 200 μL of urine and bile samples. Sample preparation was the same as sample preparation in “Pharmacokinetic study in vivo”.

O=C(/C=C/c1ccc(O)c(O)c1/C=C/c1ccc(O)c(O)c1)O[C@H](Cc1ccc(O)c(O)c1)C(=O)O [Sal A, Salvianolic acid A]
plasma half-life [1]: 3.29 h | presence in brain homogenate [2]: detected in brain homogenate | time to distribute into tissues [2]: ≤ 10 min | tissue with highest concentration ([2]; 10 min, 1 and 2 h, 5 mg/kg): stomach followed by small intestine and liver; also recorded: highest tissue concentration was found in stomach | excretion via bile, mean % of the dose ([3]; bile duct intubated rats, 0–24 h): 0.00373% | dose excreted ([3]; both sexes, Sprague-Dawley, rat, feces, bile and urine, rats, read-out: recovery (accumulated excretion through feces, bile and urine), % of administered dose): < 1% | urinary excretion, mean % of the dose ([3]; rats, 0–96 h): 0.00252%
